Measured values taken from patent US4670469A, “Hydroxamic acid and pharmaceutical preparations containing the same” (VEB Arzneimittelwerk Dresden, priority 1983, dated 1987).

Assays:
[1] = target: T1, arachidonate-lipoxygenase of human thrombocyte (Homo sapiens, UniProt P18054); assay: Arachidonate-lipoxygenase activity of microsome-free lysate of human thrombocyte concentrates; type: biochemical; conditions: 0.25 mM
T1 construct: microsome-free lysate of human thrombocyte concentrates; from tissue; host or cells: human thrombocyte (platelet) concentrates, microsome-free lysate
T1 sequence (P18054 whole entry): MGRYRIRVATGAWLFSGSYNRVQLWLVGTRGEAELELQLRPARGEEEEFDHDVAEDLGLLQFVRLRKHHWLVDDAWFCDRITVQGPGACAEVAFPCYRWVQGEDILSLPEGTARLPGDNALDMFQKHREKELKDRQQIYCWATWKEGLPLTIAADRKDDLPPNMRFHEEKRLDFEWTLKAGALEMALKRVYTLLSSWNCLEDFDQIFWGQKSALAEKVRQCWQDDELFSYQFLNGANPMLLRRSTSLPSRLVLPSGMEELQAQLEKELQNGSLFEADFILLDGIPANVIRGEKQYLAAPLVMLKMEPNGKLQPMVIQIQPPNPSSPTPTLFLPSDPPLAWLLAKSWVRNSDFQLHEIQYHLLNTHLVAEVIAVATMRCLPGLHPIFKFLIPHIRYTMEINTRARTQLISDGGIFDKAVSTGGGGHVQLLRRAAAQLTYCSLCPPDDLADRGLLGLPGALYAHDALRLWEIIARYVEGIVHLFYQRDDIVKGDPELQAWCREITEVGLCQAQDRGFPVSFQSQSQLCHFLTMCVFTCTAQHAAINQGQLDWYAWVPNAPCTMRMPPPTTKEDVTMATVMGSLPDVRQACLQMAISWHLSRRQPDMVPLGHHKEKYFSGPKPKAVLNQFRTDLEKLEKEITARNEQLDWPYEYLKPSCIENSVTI
Procedure: (§1) The inhibition of thrombocyte aggregation is likewise ascribed to the inhibition of lipoxygenase in the cells. It has thus been shown that the arachidonate-lipoxygenase activity of a microsome-free lysate of human thrombocyte concentrates is inhibited to the extent of 100% by means of 0.25 mM salicylhydroxamic acid. Moreover, it has been shown that also a series of further lipoxygenases are inhibited by means of the here described hydroxamic acids. The lipoxygenase from soybeans reacts the most insensitive, i.e. it is inhibited by means of 1 mM salicylhydroxamic acid at pH 7.4 to an extent of 60% and by means of 0.4 mM 2-hydroxy-1-napthylhydroxamic acid to an extent of 54%. In contrast, for the lipoxygenase from peas which come closer in their characteristics to human lipoxygenase, the following I50 -values are provided: salicyl hydroxamic acid, 5 μM, 2-hydroxy-1-napthylhydroxamic acid, 2 μM, 2(2'-napthoxy)-acethydroxamic acid, 2 μM. Moreover it has been shown that the formation lipoxygenase products of arachidonic acid in in vitro cultivated aorta endothelial cells of calves is hindered through 0.1 mM 2-hydroxy-1-napthylhydroxamic acids.

[2] = target: T2, lipoxygenase from soybeans (Glycine max, UniProt P08170); assay: Inhibition of lipoxygenase from soybeans; type: biochemical; conditions: pH 7.4, read-out: inhibition of soybean lipoxygenase
T2 construct: host or cells: soybeans
T2 sequence (P08170 1-839): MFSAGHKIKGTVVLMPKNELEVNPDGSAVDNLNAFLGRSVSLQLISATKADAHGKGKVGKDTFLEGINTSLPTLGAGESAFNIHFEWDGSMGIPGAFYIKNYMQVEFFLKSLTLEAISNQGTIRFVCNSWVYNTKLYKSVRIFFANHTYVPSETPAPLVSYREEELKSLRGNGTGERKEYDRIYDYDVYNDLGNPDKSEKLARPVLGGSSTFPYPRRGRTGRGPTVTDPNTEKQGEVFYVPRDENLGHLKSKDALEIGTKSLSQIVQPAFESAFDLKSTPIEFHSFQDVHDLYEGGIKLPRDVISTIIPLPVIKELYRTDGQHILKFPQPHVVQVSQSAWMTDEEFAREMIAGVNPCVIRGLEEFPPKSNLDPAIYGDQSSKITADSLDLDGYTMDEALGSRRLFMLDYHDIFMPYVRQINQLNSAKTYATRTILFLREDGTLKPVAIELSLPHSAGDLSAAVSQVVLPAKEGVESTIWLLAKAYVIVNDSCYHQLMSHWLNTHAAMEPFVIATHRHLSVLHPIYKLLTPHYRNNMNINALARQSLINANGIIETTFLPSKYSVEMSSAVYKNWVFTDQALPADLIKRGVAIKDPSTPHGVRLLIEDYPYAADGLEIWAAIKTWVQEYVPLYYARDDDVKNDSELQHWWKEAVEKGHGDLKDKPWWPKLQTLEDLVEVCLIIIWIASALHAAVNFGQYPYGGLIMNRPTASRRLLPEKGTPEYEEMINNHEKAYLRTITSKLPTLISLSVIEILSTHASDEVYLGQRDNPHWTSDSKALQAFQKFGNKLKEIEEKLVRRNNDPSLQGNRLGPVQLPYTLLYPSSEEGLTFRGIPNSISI
Procedure: as §1

## O=C(NO)c1ccccc1O [salicylhydroxamic acid]
[1]
  inhibition at 250 µM: 100%
[2]
  inhibition at 1000 µM: 60%
